Converted amounts (≈) assume the structure as drawn.
How the values were obtained:
B. bovis Mo7 strain = assay: Blasticidin inhibition of B. bovis growth in in vitro cultures; format: cell-based, Babesia bovis
Procedure: B. bovis parasites of the Mo7 strain were cultured in ˜1 ml cultures in 24 well plates containing 10% bovine red blood cells. Triplicate wells were cultured with or without increasing amounts of blasticidin added to the culture media at […], 2.4, and 4.8 μg/ml, prepared from a 5 mg/ml stock solution of blasticidin (Invitrogen) in sterile water, for three consecutive days. Culture media was replaced daily. The percentage of parasitized erythrocytes (ppe) was estimated by microscopic counting of Diff-Quik (Dade Behring) stained slides as described (Suarez and McElwain, (2008) Exp Parasitol. 118: 498-504). Percentage B. bovis inhibition was calculated by dividing the mean ppe in triplicate blasticidin treated wells by the mean ppe in triplicate control wells grown in the absence of blasticidin, and multiplying by 100.
To determine whether B. bovis growth could be inhibited with blasticidin, and to estimate the concentration of blasticidin appropriate for establishing a blasticidin/blasticidin deaminase (bsd) transfection system, B. bovis Mo7 strain parasites were cultured in the presence of varying concentrations of blasticidin ranging from 0 to 5 μg/ml in triplicate wells. The percentage of parasitized erythrocytes (ppe) in each well was determined for the first three days after splitting the cultures in each well to a starting ppe of 0.5%. […] Subsequent stable transfection experiments were performed using either 0.3 or 0.6 μg/ml, blasticidin.

[1] = test system: Plasmodium falciparum parasites; settings: calculated for Plasmodium falciparum parasites, given for comparison; cited from earlier work
[2] = test system: B. bovis control parasites transfected with pBS; assay: Growth curves of mock pBS-transfected control parasites with blasticidin; format: cell-based, Babesia bovis; settings: blasticidin at 6.4 μg/ml
Procedure: (§1) Growth characteristics of the blasticidin selected parasite line 1-2-124 were examined and compared with mock pBS-transfected control parasites in the presence or absence of 6.4 μg/ml blasticidin. […] In addition, no differences were observed between growth rates of parasite cell line 1-2-124 and control parasites in the absence of blasticidin.

[3] = test system: B. bovis transfected parasite line 1-2-124 (gfp-bsd); assay: Growth curves of blasticidin selected parasite line 1-2-124 with blasticidin; format: cell-based, Babesia bovis; settings: blasticidin at 6.4 μg/ml, 10 times higher than used for original selection
Procedure: as §1

With `CN(CC[C@H](N)CC(=O)N[C@H]1C=C[C@H](n2ccc(N)nc2=O)O[C@@H]1C(=O)O)C(=N)N` [blasticidin] the “50% inhibitory concentration of blasticidin (IC50)” value (B. bovis Mo7 strain; Mo7 strain, in vitro culture, after three days of drug selection, percentage of parasitized erythrocytes) was ~0.4 µg/mL, the “concentration of blasticidin resulting in negligible parasite growth” value (B. bovis Mo7 strain; Mo7 strain, in vitro culture, three days) was 0.64 to 1.25 µg/mL and the “infected erythrocytes in stained slides” value (B. bovis Mo7 strain; blasticidin dose of 5 μg/ml, after three days in culture) was “No B. bovis infected erythrocytes could be detected”. The IC50 [1] was 0.35 µg/mL (≈ 0.829 µM), the “parasite growth in the presence of blasticidin” value [2] was “not able to grow” and the “parasite growth with or without blasticidin” value [3] was “able to grow at similar rates”.
